#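 Following 48 hours of exposure in 96-well plates, responses at five concentrations were used to interpolate endpoints linearly. The concentration for 50% growth inhibition is given as GI50.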 Activity calls are given as the source filed them. Rule as the data show it: active = GI50 up to about 1.1 µM and inactive = higher. Where a SMILES comes first, the peptide text is derived from it. [ ]: non-standard residue; d: D form. The star is where a group is joined. ξ: configuration not given here. X4 = COc1ccc(C(N*)c2ccc(OC)cc2)cc1; NMeF = CN[C@@H](Cc1ccccc1)C(=O)O; NMeD = CN[C@@H](CC(=O)O)C(=O)O; NMeV = CN[C@H](C(=O)O)C(C)C; ξNMeV = CNC(C(=O)O)C(C)C; Boc = CC(C)(C)OC(=O)*; ξNMeA = CNC(C)C(=O)O; ξV = CC(C)C(N)C(=O)O
# Columns and labels:
# Assay in all cases: NCI tumour cell line growth inhibition, 48 h
# [1] = system: A498
# [2] = system: CCRF-CEM
# [3] = system: DU-145
# [4] = system: HCC 2998
# [5] = system: HOP-62
# [6] = system: HOP-92
# [7] = system: IGROV-1
# [8] = system: MDA-MB-231
# [9] = system: MDA-N
# [10] = system: MOLT-4
# [11] = system: Malme-3M
# [12] = system: NCI-H460
# [13] = system: NCI-H522
# [14] = system: NCI/ADR-RES
# [15] = system: RXF 393
# [16] = system: SK-MEL-28
# [17] = system: SR
# [18] = system: TK-10
# [19] = system: U-251
# [20] = system: UACC-257
SMILES,GI50 [1],GI50 [2],GI50 [3],GI50 [4],GI50 [5],GI50 [6],GI50 [7],GI50 [8],GI50 [9],GI50 [10],GI50 [11],GI50 [12],GI50 [13],GI50 [14],GI50 [15],GI50 [16],GI50 [17],GI50 [18],GI50 [19],GI50 [20]
CC(C)/C(Cl)=N/OC(=O)Nc1ccc(OC(F)(F)F)cc1,18.6 µM (inactive),1.27 µM (inactive),17.2 µM (inactive),16.7 µM (inactive),17.7 µM (inactive),1.68 µM (inactive),16.5 µM (inactive),15.6 µM (inactive),13.4 µM (inactive),2.86 µM (inactive),2.48 µM (inactive),16.6 µM (inactive),1.47 µM (inactive),17 µM (inactive),4.03 µM (inactive),13.3 µM (inactive),1.94 µM (inactive),15.9 µM (inactive),17.3 µM (inactive),13.7 µM (inactive)
N/C(=N/O)c1cn(C2OC(CO)C(O)C2O)c2ncnc(NO)c12 (stereo not given),0.425 µM (active),0.0165 µM (active),0.112 µM (active),0.147 µM (active),0.366 µM (active),1.03 µM (active),0.451 µM (active),0.0344 µM (active),0.0407 µM (active),0.0871 µM (active),0.0373 µM (active),0.112 µM (active),0.0226 µM (active),0.203 µM (active),0.356 µM (active),0.476 µM (active),0.0356 µM (active),0.0865 µM (active),0.226 µM (active),0.224 µM (active)
COc1ccc(C(NC(=O)C[C@@H](C(=O)N(C)C(C)C(=O)O)N(C)C(=O)[C@@H]2CCCN2C(=O)[C@H](C(C)C)N(C)C(=O)C(C(C)C)N(C)C(=O)[C@H](Cc2ccccc2)N(C)C(=O)C(NC(=O)OC(C)(C)C)C(C)C)c2ccc(OC)cc2)cc1 (stereo not given in full) (Boc-[ξV][NMeF][ξNMeV][NMeV]P[NMeD](X4)[ξNMeA]-OH),> 37.5 µM (inactive),7.43 µM (inactive),25.9 µM (inactive),6.76 µM (inactive),13.4 µM (inactive),8.26 µM (inactive),8.43 µM (inactive),11.3 µM (inactive),12.5 µM (inactive),8.39 µM (inactive),14.4 µM (inactive),24.5 µM (inactive),11.5 µM (inactive),> 37.5 µM (inactive),7.5 µM (inactive),7.62 µM (inactive),15.6 µM (inactive),23.7 µM (inactive),9.75 µM (inactive),9.75 µM (inactive)
O=C1NC(=O)C(c2c[nH]c3cc(Br)ccc23)=C1c1cn(C(c2ccccc2)(c2ccccc2)c2ccccc2)cn1,16.8 µM (inactive),5.45 µM (inactive),21.6 µM (inactive),12.6 µM (inactive),24.7 µM (inactive),13.9 µM (inactive),12 µM (inactive),5.97 µM (inactive),10.1 µM (inactive),4.41 µM (inactive),19.5 µM (inactive),11.1 µM (inactive),13.3 µM (inactive),27.2 µM (inactive),15 µM (inactive),27.2 µM (inactive),6.64 µM (inactive),16.2 µM (inactive),10.7 µM (inactive),18.5 µM (inactive)
